For 44 molecules, photoluminescence quantum yield results are on record in the Deep4Chem optical property database.

A short description of the series: photoluminescence quantum yield (fraction); solvent given as SMILES.

In turn, `COc1cc(-c2nc3c4cccnc4c4ncccc4c3[nH]2)c(OC)cc1/C=C/c1nc2ccccc2[nH]1` came in with a photoluminescence quantum yield (in C1CCOC1) of 0.75, a photoluminescence quantum yield (in CC#N) of 0.43, a photoluminescence quantum yield (in CO) of 0.21 and a photoluminescence quantum yield (in ClCCl) of 0.62.

The molecule `CC(C)(C)c1cc2c(c(C(C)(C)C)c1)O[B-](F)(F)[n+]1c-2nc(-c2ccccc2)c2cc(Cl)ccc21` gave a photoluminescence quantum yield (in Cc1ccccc1) of 0.001.

For the setting “in ClCCl”, `CCc1cccc(CC)c1-c1c2ccccc2c(-c2c(CC)cccc2CC)c2cc3ccccc3cc12` registered a photoluminescence quantum yield of 0.56.

With `CC(C)(C)c1cc(C#Cc2ccc3c(C#Cc4cc(C(C)(C)C)cc(C(C)(C)C)c4)cc4c5cc(C#Cc6cc(C(C)(C)C)cc(C(C)(C)C)c6)ccc5c(C#Cc5cc(C(C)(C)C)cc(C(C)(C)C)c5)cc4c3c2)cc(C(C)(C)C)c1`, the photoluminescence quantum yield (in ClCCl) came to 0.626.

Under “in C1CCCCC1”, `Clc1cc(Cl)c([C](c2c(Cl)cc(Cl)cc2Cl)c2c(Cl)cc(Cl)cc2Cl)c(Cl)c1` came in with a photoluminescence quantum yield of 0.008.

For the setting “in Cc1ccccc1”, `CCCCCCN(CCCCCC)c1ccc(C#Cc2ccc(/C=C/c3ccc(-c4ccc(/C=C/c5ccc(C#Cc6ccc(N(CCCCCC)CCCCCC)cc6)cc5)cc4)cc3)cc2)cc1` returned a photoluminescence quantum yield of 0.8.

Turning to `O=P1(c2ccccc2)C(c2ccc(C(F)(F)F)cc2)=Cc2cc3ccccc3cc21` (stereo unspecified), where the note is “in ClCCl”, the photoluminescence quantum yield is 0.42.

Take `CCOC(=O)c1ccccc1-c1c2ccc(=O)cc-2oc2cc(OC(=O)[C@H](CO[Si](C)(C)C(C)(C)C)NC(=O)OC(C)(C)C)ccc12`: the photoluminescence quantum yield turned out to be 0.003 (in C1CCOC1), 0.003 (in CC#N), 0.048 (in CCO) and 0.01 (in CS(C)=O).

Regarding `CON(OC)c1cc2c3cc(-c4c(C)cc(C)cc4C)cc4c5cc(-c6c(C)cc(C)cc6C)cc6c7cc(B(c8c(C)cc(C)cc8C)c8c(C)cc(C)cc8C)cc8c9cc(-c%10c(C)cc(C)cc%10C)cc%10c%11cc(-c%12c(C)cc(C)cc%12C)cc%12c(c1)c2c1c(c43)c(c65)c(c78)c(c9%10)c1c%11%12`, the photoluminescence quantum yield is 0.46 (in C1CCOC1); 0.05 (in CC(C)=O); 0.22 (in CCCCCC); 0.42 (in Cc1ccccc1); 0.46 (in ClC(Cl)Cl); 0.56 (in ClCCl).

On to `CN(C)c1ccc2nc(-c3ccc(C=C4C(=O)c5ccccc5C4=O)cc3)sc2c1`, for which the photoluminescence quantum yield amounted to 0.13 (in C1CCCCC1), 0 (in CC#N), 0 (in CO) and 0.35 (in ClC(Cl)Cl).

In turn, `CC1=N/C(=C\c2cc(N(C)C)ccc2C#N)C(=O)N1C` registered a photoluminescence quantum yield (in C1CCOC1) of 0.19, a photoluminescence quantum yield (in CC#N) of 0.07 and a photoluminescence quantum yield (in CCCCCC) of 0.6.

With `CCOC(=O)c1ccccc1-c1c2ccc(=[N+](CC)CC)cc-2oc2c1c(=O)oc1cc3c(cc12)CCCN3C`, the photoluminescence quantum yield runs as follows: (in CCO) 0.04; (in ClC(Cl)Cl) 0.33.

Consider `COc1ccc(-c2cc(N3CCCCC3)c(C#N)c3c2-c2cccc4cccc-3c24)cc1`, for which the photoluminescence quantum yield (in O) was determined as 0.36.

Molecule `CC1(C)c2cc(/C=C/c3nc(/C=C/c4ccc5c(c4)C(C)(C)c4cc(N(c6ccccc6)c6ccccc6)ccc4-5)nc(/C=C/c4ccc5c(c4)C(C)(C)c4cc(N(c6ccccc6)c6ccccc6)ccc4-5)n3)ccc2-c2ccc(N(c3ccccc3)c3ccccc3)cc21` displayed a photoluminescence quantum yield (in Cc1ccccc1) of 0.36.

As for `S=P1(c2ccccc2)C(c2ccccc2)=Cc2cc3ccccc3cc21` (stereo unspecified), the photoluminescence quantum yield (in ClCCl) was determined as 0.001.

Turning to `C1=Cc2ccc3ccccc3c2NB1c1ccccc1`, for the setting “in C1CCCCC1”, the photoluminescence quantum yield came to 0.57.

The molecule `C(=C\c1cc(/C=C/c2ccc(-n3c4ccccc4c4ccccc43)cc2)cc(/C=C/c2ccc(-n3c4ccccc4c4ccccc43)cc2)c1)/c1ccc(-n2c3ccccc3c3ccccc32)cc1` yielded a photoluminescence quantum yield (in C1CCOC1) of 0.8, a photoluminescence quantum yield (in CC#N) of 0.83, a photoluminescence quantum yield (in Cc1ccccc1) of 0.59 and a photoluminescence quantum yield (in ClCCl) of 0.75.

Where the note is “in CC#N”, `c1cc2c3c(cccc3c1)C(N1CCOCCNCCOCCOCC1)=N2` had a photoluminescence quantum yield of 0.0046.

For the setting “in ClCCl”, `CC[C@H](C)COc1ccc(C2=C3C(C)=C(c4ccc5ccc6cccc7ccc4c5c67)C(C)=[N+]3[B-](F)(F)n3c(C)c(-c4ccc5ccc6cccc7ccc4c5c67)c(C)c32)cc1` yielded a photoluminescence quantum yield of 0.5.

Consider `COc1ccc(-c2ccc(-c3c4c(nc5ccccc35)-c3cc5c(cc3CC4)-c3nc4ccccc4c(-c4ccc(-c6ccc(OC)cc6)cc4)c3CC5)cc2)cc1`, for which, for the setting “in ClC(Cl)Cl”, the photoluminescence quantum yield turned out to be 0.827.

Under “in C1CCOC1”, `C(=C\c1cc2ccccc2c2ccccc12)/c1cc2ccccc2c2ccccc12` showed a photoluminescence quantum yield of 0.6.

Regarding `CCn1c2ccccc2c2cc(/C=C3\C(=O)c4ccccc4S3(=O)=O)ccc21`, the photoluminescence quantum yield runs as follows: (in C1CCOC1) 0.029; (in C1COCCO1) 0.025; (in CC#N) 0.023; (in CC(C)=O) 0.042; (in CCOC(C)=O) 0.039; (in CN(C)C=O) 0.033. Also, the photoluminescence quantum yield amounted to 0.003 (in CO); 0.083 (in CS(C)=O); 0.014 (in Cc1ccccc1); 0.04 (in ClC(Cl)Cl); 0.04 (in ClCCl).

Consider `CC1=N/C(=C\c2ccncc2)C(=O)N1C`, for which the photoluminescence quantum yield was determined as 0.165 (in C1COCCO1); 0.047 (in CC#N); 0.033 (in CCO); 0.089 (in CCOC(C)=O); 0.0065 (in O).

On to `CCCCn1c(=O)c2cc3ccc4cccc5ccc(c2c1=O)c3c45`, for which, for the setting “in ClC(Cl)Cl”, the photoluminescence quantum yield was found to be 0.52.

With `COc1ccc(-c2c3ccccc3c(C#Cc3ccccc3)c3ccccc23)cc1`, the photoluminescence quantum yield (in ClCCl) was found to be 0.51.

Take `CC(C)(C)c1ccc2ccc3cc(-c4ccc5c(-c6ccc7c(ccc8ccc(C(C)(C)C)cc87)c6)cc6c7cc(-c8ccc9c(ccc%10ccc(C(C)(C)C)cc%109)c8)ccc7c(-c7ccc8c(ccc9ccc(C(C)(C)C)cc98)c7)cc6c5c4)ccc3c2c1`: the photoluminescence quantum yield (in ClCCl) turned out to be 0.781.

For `COc1ccc2c(c1)-c1cc(OC)ccc1C2=O`, the photoluminescence quantum yield runs as follows: (in C1CCCCC1) 0.0028; (in CC#N) 0.028; (in CCO) 0.002.

Consider `CC(C)(C)OC(=O)NC(C(=O)OCc1ccc2c3cccc4cccc(c5cccc1c52)c43)c1c[nH]c2ccccc12` (stereo unspecified), for which, for the setting “in CCO”, the photoluminescence quantum yield was 0.86.

With `Nc1cccc[nH+]1`, where the note is “in O”, the photoluminescence quantum yield was 0.64.

For the molecule `N#C/C(=C\c1ccc(C#N)cc1)c1nc(-c2ccc(Cl)cc2)cs1`, under “in CC#N”, the photoluminescence quantum yield turned out to be 0.18.

`CC(C)(C)c1ccc2c(c1)c1cc(C(C)(C)C)ccc1n2-c1cccc(-c2nc(-c3cccc(P(=O)(c4ccccc4)c4ccccc4)c3)nc(-c3cccc(P(=O)(c4ccccc4)c4ccccc4)c3)n2)c1` gave a photoluminescence quantum yield (in O=P(c1ccccc1)(c1ccccc1)c1ccccc1Oc1ccccc1P(=O)(c1ccccc1)c1ccccc1) of 0.72.

Molecule `C(=C\c1ccncn1)/c1ccc(N2CCCCC2)cc1` yielded a photoluminescence quantum yield (in ClCCl) of 0.13.

Turning to `CC(C)(C)c1ccc(-c2cc3c4c(c2)CCc2cc(-c5ccc(C(C)(C)C)cc5)cc(c2-4)CC3)cc1`, the photoluminescence quantum yield was determined as 0.61 (in C1CCCCC1); 0.68 (in C1CCOC1); 0.55 (in CC#N); 0.52 (in CCCCCC); 0.48 (in CCO); 0.66 (in CN(C)C=O). Also, the photoluminescence quantum yield by setting is: (in CO) 0.39; (in Cc1ccccc1) 1; (in ClC(Cl)Cl) 0.53; (in ClCCl) 1.

The molecule `c1ccc(N(c2ccccc2)c2ccc(-c3ccc4c(c3)C3(c5ccccc5Oc5ccccc53)c3cc(-c5ccc(N(c6ccccc6)c6ccccc6)cc5)ccc3-4)cc2)cc1` displayed a photoluminescence quantum yield (in ClCCl) of 0.91 and a photoluminescence quantum yield (in c1cc(-n2c3ccccc3c3ccccc32)cc(-n2c3ccccc3c3ccccc32)c1) of 0.9.

The molecule `COc1ccc(-c2csc(/C(C#N)=C/c3c(Cl)cccc3Cl)n2)cc1` showed a photoluminescence quantum yield (in CC#N) of 0.038.

For `CCCCCCCCOc1ccc(C#Cc2c3cc4ccccc4cc3c(C#Cc3ccc(F)cc3)c3cc4ccccc4cc23)cc1`, the photoluminescence quantum yield (in ClCCl) came to 0.03.

As for `Nc1n[n+]([O-])c2cc(F)ccc2[n+]1[O-]`, the photoluminescence quantum yield reads like this: (in CC#N) 0.0077; (in O) 0.003.

For `Cc1nc(-c2ccccc2O)n2c1CCCC2`, the photoluminescence quantum yield (in ClCCl) came to 0.63.

With `CCC1(CC)c2cc(N(C)C)ccc2-c2ccc(C(F)(F)F)cc21`, the photoluminescence quantum yield is 0.67 (in C1CCCCC1); 0.04 (in CC#N); 0.58 (in CCO); 0.63 (in CCOCC); 0.53 (in CS(C)=O); 0.44 (in ClCCl). The molecule also had a photoluminescence quantum yield (in c1ccccc1) of 0.59.

Turning to `COc1ccc(/C=C/C2=NC(=C\c3ccncc3)/C(=O)N2C)cc1`, the photoluminescence quantum yield (in C1COCCO1) was 0.005; the photoluminescence quantum yield (in CC#N) turned out to be 0.0026; the photoluminescence quantum yield (in CCO) came to 0.0027; the photoluminescence quantum yield (in CCOC(C)=O) was found to be 0.003; the photoluminescence quantum yield (in O) worked out at 0.0029.

In turn, `COC(=O)CCC1=CC(C#Cc2ccsc2)=[N+]2C1=Cc1c(CCC(=O)OC)cc(C#Cc3ccsc3)n1[B-]2(F)F` registered a photoluminescence quantum yield (in ClCCl) of 0.39.

Molecule `CC(C)CN1C(=O)/C(=C/c2ccc([N+](=O)[O-])cc2)C=C1c1ccccc1` had a photoluminescence quantum yield (in C1COCCO1) of 0.033.

For the setting “in ClCCl”, `CC(C)(C)c1ccc(-c2c3c(c(-c4ccc(C(C)(C)C)cc4)c4cc5ccccc5cc24)Cc2c(c(-c4ccc(C(C)(C)C)cc4)c4cc5ccccc5cc4c2-c2ccc(C(C)(C)C)cc2)C3)cc1` displayed a photoluminescence quantum yield of 0.15.

For the setting “in C1CCOC1”, `F[B-]1(F)Oc2ccccc2-c2n(-c3ccc(C(F)(F)F)cc3)c(-c3ccccc3)c(-c3ccccc3)[n+]21` returned a photoluminescence quantum yield of 0.49.
